Results reported in patent publication US20120208182A1, “GENETIC TEST FOR LIVER COPPER ACCUMULATION IN DOGS AND LOW COPPER PET DIET” (priority 2009, published 2012).

Tests used:
Labrador Retrievers [1] = assay: Diet trial with randomized, placebo-controlled zinc application: quantitative hepatic copper by neutron activation analysis; type: in vivo, dog; details: 7.5 mg/kg PO BID versus placebo, all dogs on diet
Experimental: (§1) All dogs were fed the same diet. […] The pharmacist was the only person aware of group allocations until completion of the study. Hepatic copper concentrations and histopathology were assessed along with clinical examinations and blood-work before and after treatment for a mean of 8 months (range 5-13), and 16 months (range 12-25). Plasma zinc concentrations were measured at additional time points during treatment.
All dogs had completed their treatment with penicillamine prior to the start of this study. A medical history was obtained from all dogs and a physical examination was performed. […] Two biopsies were fixed in 10 percent neutral buffered formalin, and one biopsy was stored in a copper-free container for quantitative copper determination.
A quantitative assay for copper in liver tissue was performed by neutron activation analysis, according to a protocol described by Teske et al, using the facilities described by Bode (Bode, P. (1990) Journal of Trace and Microprobe Techniques 8: 139; Teske et al. (1992) Vet Rec 131: 30-32). Quantitative copper concentrations were measured in lyophilised liver biopsies and reported in mg/kg dry weight liver.
All dog owners were provided with the same specially manufactured diet. […] Metabolizable energy (measured according to Association of American Feed Control Officials protocol): 1650 kcal/kg as fed). […]

Labrador Retrievers [2] = assay: Hepatic copper before penicillamine, after penicillamine and after diet (Example 5, FIG. 3); type: in vivo, dog; details: all dogs on diet, data not shown
Experimental: FIG. 3 illustrates the effectiveness of the diet of the invention on hepatic copper concentrations (mg/kg dry weight) in 18 Labrador Retrievers compared with the effect of penicillamine alone. The key to the x-axis is as follows: 1=pre-penicillamine, 2=post-penicillamine/pre-food, 3=post-food. […] The dotted line represents the normal level of hepatic copper for adult dogs.
During an investigation of the effect of zinc on hepatic copper concentration, hepatic copper concentration was measured in 18 pure-bred Labrador Retrievers. Half of the dogs were provided with a supplement of zinc and the other half were provided with a placebo. All of the dogs were fed the diet of Example 2. Hepatic copper concentration was measured using the method of Example 2 at 3 time points: (1) before treatment with penicillamine; (2) after treatment with penicillamine but before treatment with the diet of Example 2; and (3) after the diet treatment.

[3] = Diet trial: blood examinations (bile acids, ALP, ALT, plasma zinc); type: in vivo, dog
Experimental: as §1
All dogs had completed their treatment with penicillamine prior to the start of this study. A medical history was obtained from all dogs and a physical examination was performed. Na-citrated blood samples were taken for analysis of a coagulation profile, including prothrombin time (PT), activated partial thromboplastin time (aPTT) and fibrinogen. Heparin- and EDTA-blood was sampled for analysis of the hepatobiliary enzymes alkaline phosphatase (ALP), alanine aminotransferase (ALT), of bile acids (BA), and for measurement of the platelet count, and plasma zinc concentrations. Liver biopsies were taken according to the Menghini technique given by Rothuizen (Rothuizen J, I. T. (1998) Tijdschr Diergeneeskd 123: 246-252). At least three liver biopsies were taken from each dog. Two biopsies were fixed in 10 percent neutral buffered formalin, and one biopsy was stored in a copper-free container for quantitative copper determination.

Labrador Retrievers [4] = assay: Diet trial: observed adverse effects; type: in vivo, dog; details: in 3 dogs of group 1; immediately after the tablets, resolved when tablets were mixed with the diet
Experimental: as §1
Owners were instructed to give the tablets mixed with small amounts of their diet 30 minutes before feeding. Neither the owner nor the clinician was informed about which treatment each dog received.

[5] = Pharmacokinetic study of oral zinc gluconate, plasma zinc by atomic absorption spectrometry; type: in vivo, Labrador Retrievers; details: for V_F: volume of distribution: food withheld 12 h before dosing
Experimental: Two unrelated nine-year old, healthy Labrador Retrievers (1 female and 1 male) were used in a pharmacokinetic study. Food was withheld for a 12-hour period prior to oral administration of zinc, and during the initial 6-hour testing period. Water was freely available. […] Heparinized blood samples (4 ml) were collected from the jugular vein before dosing (time 0) and 15, 30, 45, 60, 90, 120 minutes, and 4, 8, 12 and 24 hours after application of the drug. Plasma was stored at
−20° C. until analysis for zinc using atomic absorption spectrometry. […]

zinc gluconate
effect of adjunctive zinc on hepatic copper decrease by diet (Labrador Retrievers [1]): did not amplify the de-coppering effect
copper levels in dogs treated with zinc versus placebo (Labrador Retrievers [2]): no significant difference
plasma zinc concentration, group 1 versus group 2 ([3]; at any of the three examinations (start, recheck-1, recheck-2)): No difference
mean plasma zinc concentration ([3]; group 1, after the initial month of treatment, sampled 2-6 hours after zinc application, start 95): 165 µg/dL
adverse effects (Labrador Retrievers [4]): Vomiting, anorexia, and diarrhea
AUC: area under the curve ([5]; Dog 1, 10 mg/kg oral): 63350 ng·h/mL
K01: absorption rate constant ([5]; Dog 1, 10 mg/kg oral): 0.5672 h⁻¹
K10: elimination rate constant ([5]; Dog 1, 10 mg/kg oral): 0.05373 h⁻¹
Tmax: time of maximum concentration ([5]; Dog 1, 10 mg/kg oral): 4.59 h
V_F: volume of distribution ([5]; Dog 1, 10 mg/kg oral): 2937.872 ml/kg bodyweight
AUC: area under the curve ([5]; Dog 2, 5 mg/kg oral): 51990 ng·h/mL
K01: absorption rate constant ([5]; Dog 2, 5 mg/kg oral): 1.161 h⁻¹
K10: elimination rate constant ([5]; Dog 2, 5 mg/kg oral): 0.03789 h⁻¹
Tmax: time of maximum concentration ([5]; Dog 2, 5 mg/kg oral): 3.048 h
V_F: volume of distribution ([5]; Dog 2, 5 mg/kg oral): 2538.689 ml/kg bodyweight
calculated accumulation rate R ([5]; R=1/(1−exp(−k10*24))): 1.52
apparent oral clearance (CL/F), mean of both dogs ([5]; mean of dog 1 and dog 2): 2.116898 mL/min/kg
